The values that follow come from patent publication US9481876B2, “Cathepsin L inhibitors and probes comprising vinyl sulfonate moiety and methods of using same” (Research Foundation of the City University of New York, priority 2014, dated 2016).

Usually IC50 stands for the concentration needed to halve the response being measured.

“Also recorded” adds a separate entry of the source.

The target of series [1] is T1, recombinant human cathepsin L (Homo sapiens, UniProt P07711).
T1 sequence (P07711 18-333 limits assumed): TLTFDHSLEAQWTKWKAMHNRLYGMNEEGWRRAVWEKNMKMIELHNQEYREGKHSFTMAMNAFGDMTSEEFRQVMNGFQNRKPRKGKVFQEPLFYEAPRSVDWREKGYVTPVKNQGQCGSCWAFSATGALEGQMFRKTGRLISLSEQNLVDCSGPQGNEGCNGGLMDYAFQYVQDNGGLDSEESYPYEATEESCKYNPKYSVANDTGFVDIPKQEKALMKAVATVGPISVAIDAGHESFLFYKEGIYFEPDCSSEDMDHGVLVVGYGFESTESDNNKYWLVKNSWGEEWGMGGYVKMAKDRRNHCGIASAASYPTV
The series can be described thus: initial inhibitory screen of precursors against recombinant human cathepsin L. The settings on record: 10 μM. It is filed as biochemical. As for the experimental part: An initial inhibitory screen of various precursors (see FIG. 3A and FIG. 3B) was performed at 10 μM against recombinant human cathepsin L. The percent inhibition of each precursor is shown below its corresponding precursor in FIG. 3A and FIG. 3B. Precursor 301 was identified as a lead precursor with a 95±3% inhibition. In some embodiments, one or more of the 2, 3, 5 and/or 6 positions are occupied by an aryl group. Examples of suitable aryl groups include NHPh, OPh or homologs thereof.

Series [2] addresses T2, active recombinant human cathepsin L (Homo sapiens, UniProt P07711).
T2 construct: active recombinant human cathepsin L
Kind of series: inhibition and inactivation kinetics of cathepsin L, hydrolysis of fluorescent substrate Z-Phe-Arg-(7-Amino-4-methylcoumarin). It is filed as biochemical. From the text: Based on this initial inhibitory screen compound 100 (FIG. 1), was proposed and successfully synthesized from precursor 301 using a multi-step synthetic methodology (FIG. 4A and FIG. 4B). […] FIG. 5 depicts a progress curve for cathepsin L-catalyzed hydrolysis of fluorescent substrate, Z-Phe-Arg-(7-Amino-4-methylcoumarin) with various concentration of compound 100. […] The dose-dependent progress curves were utilized to obtain the second order cathepsin L inactivation rate constant (kinact). […] The mode of inhibition was irreversible because no significant recovery of enzyme activity could be achieved, even after a very large dilution of inactivated reaction mixture.
(§1) This panel of enzymes included cysteine cathepsins, an aspartyl cathepsin, a serine cathepsin, a cysteine containing enzyme PTP, and a serine protease. The second order inactivation rate constants were thus determined by performing inactivation kinetics under a pseudo-first order condition (Table 1). […] Furthermore, no reactivity was observed against other panel of enzymes (e.g. aspartyl cathepsin D, serine cathepsin G, and a low pKa cysteine containing enzyme hPTP1B, and serine protease trypsin). A remarkable selectivity profile observed for compound 100 in these experiments is noteworthy, and thus is thought to lend itself well for the development of cathepsin L probes.
(§2) Table 1 depicts second order enzyme inactivation rate constants (kinact) of compound 100 against a panel of closely-related enzymes. Relative Selectivity Factor (RSF)=kinact (Cathepsin L)/kinact (other enzyme); NI*=no inhibition at 0.1 mM of compound 100 in 1 h, NA**=Not Applicable.

In the next series the target is T3, Cathepsin K (Homo sapiens, UniProt P43235).
T3 sequence (P43235 115-329): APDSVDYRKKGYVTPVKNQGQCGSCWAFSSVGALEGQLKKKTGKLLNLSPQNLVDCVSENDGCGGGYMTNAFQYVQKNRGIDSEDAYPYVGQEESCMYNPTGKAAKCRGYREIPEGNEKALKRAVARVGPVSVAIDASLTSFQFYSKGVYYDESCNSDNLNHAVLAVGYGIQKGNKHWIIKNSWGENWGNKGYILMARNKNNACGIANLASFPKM
The series can be described thus: selectivity panel inactivation kinetics, Cathepsin K. It counts as biochemical. The conditions noted are these: kinact (Cathepsin L)/kinact (Cathepsin K); fold.
Source text: as §1, §2

A further series concerns the target Cathepsin B (Homo sapiens, UniProt P07858). The series can be described thus: selectivity panel inactivation kinetics, Cathepsin B. It counts as biochemical. The settings on record: kinact (Cathepsin L)/kinact (Cathepsin B); fold.
Source text: as §1, §2

Another series addresses Cathepsin S (Homo sapiens, UniProt P25774). The series can be described thus: selectivity panel inactivation kinetics, Cathepsin S. It is filed as biochemical. The conditions noted are these: kinact (Cathepsin L)/kinact (Cathepsin S); fold.
Source text: as §1, §2

The next series concerns the target Cathepsin D (Homo sapiens, UniProt P07339). The series can be described thus: selectivity panel inactivation kinetics, Cathepsin D. It is filed as biochemical. The settings on record: aspartyl cathepsin D.
Source text: as §1, §2

The target in a further series is T4, Cathepsin G (Homo sapiens, UniProt P08311).
T4 sequence (P08311 21-244): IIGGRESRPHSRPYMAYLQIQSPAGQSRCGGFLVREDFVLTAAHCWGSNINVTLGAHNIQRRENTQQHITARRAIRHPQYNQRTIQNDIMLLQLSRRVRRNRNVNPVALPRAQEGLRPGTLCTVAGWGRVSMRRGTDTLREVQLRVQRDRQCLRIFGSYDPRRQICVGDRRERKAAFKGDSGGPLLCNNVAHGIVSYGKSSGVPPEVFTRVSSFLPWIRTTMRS
The series can be described thus: selectivity panel inactivation kinetics, Cathepsin G. It is filed as biochemical. The conditions noted are these: serine cathepsin G.
Source text: as §1, §2

Another series concerns the target T5, hPTP1B (Homo sapiens, UniProt P18031).
T5 sequence (P18031 1-435): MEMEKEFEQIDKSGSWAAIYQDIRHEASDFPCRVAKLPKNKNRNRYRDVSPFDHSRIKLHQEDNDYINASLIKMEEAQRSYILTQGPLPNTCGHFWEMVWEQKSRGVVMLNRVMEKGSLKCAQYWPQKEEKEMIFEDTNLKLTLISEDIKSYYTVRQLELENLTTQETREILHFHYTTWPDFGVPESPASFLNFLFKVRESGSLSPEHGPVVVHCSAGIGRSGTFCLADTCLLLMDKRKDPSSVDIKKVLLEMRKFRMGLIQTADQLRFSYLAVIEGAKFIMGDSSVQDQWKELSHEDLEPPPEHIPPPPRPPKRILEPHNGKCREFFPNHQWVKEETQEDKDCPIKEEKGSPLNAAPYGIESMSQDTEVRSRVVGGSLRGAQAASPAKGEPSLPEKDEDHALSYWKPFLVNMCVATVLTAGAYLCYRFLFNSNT
The series can be described thus: selectivity panel inactivation kinetics, hPTP1B. It counts as biochemical.
Source text: as §1, §2

In the next series the test system is Trypsin. The series can be described thus: selectivity panel inactivation kinetics, Trypsin. It is filed as biochemical. The conditions noted are these: serine protease trypsin.
Source text: as §1, §2

Series [3] relates to intracellular cathepsin L activity in MDA-MB-231 cells. Kind of series: intracellular cathepsin L activity in MDA-MB-231 cells with cell-permeable fluorescent substrate. It is filed as cell-based. An excerpt: Cell-specific and tissue-specific microenvironments are highly dynamic, and can have a dramatic impact on enzymatic activities and their in vivo function. A direct quantitative reporter of cathepsin L activity in living cancer cells is more desirable for dissecting its role in promoting metastatic cancer. Thus an activity-dependent small molecule probe with desirable cell permeability is urgently needed. […] This cell line is known to overexpress cathepsin L, thereby promoting invasion. A commercial cell-permeable fluorescent substrate of cathepsin L (Enzo LifeSciences, Inc.) was utilized to assess the intracellular inhibitory efficacy of compound 100.
Specifically, the effect of cathepsin L inhibitor 100 on intracellular cathepsin L activity in metastatic breast cancer MDA-MB-231 cell line was examined by fluorescence. Control cells and cells exposed to compound 100 were incubated with (a) vehicle (DMSO 0.05%). The non-control cells were also incubated with compound 100 (750 nM) overnight (22 h). […] Bright-field, fluorescence and merged images were obtained. […] The results are representative of three independent experiments. The effectiveness of cathepsin L inhibitor 100 was also evaluated using a functional wound-healing assay (FIG. 6A to 6F).

In series [4] the test system is MDA-MB-231 breast cancer cells. The series can be described thus: wound healing assay, cell migration. It counts as cell-based. The conditions noted are these: MDA-MB-231 cells, 750 nM, 0, 7 and 22 hrs. As for the experimental part: MDA-MB-231 cells were grown in an eight-well glass dish overnight before treating with DMSO (control, 0.05%, FIGS. 6A, 6B and 6C), and compound 100 (750 nM, FIGS. 6D, 6E and 6F). After creating the wounds, images were taken at three different time intervals: t=0 hr (FIG. 6A and FIG. 6D), 7 hrs (FIG. 6B and FIG. 6E), and 22 hrs (FIG. 6C and FIG. 6F). Representative images of three independent experiments are shown. The dotted lines indicate the edge of the wound at time zero, and the arrows indicate the area of wound closure.
FIG. 7 depicts wound closure, a direct measure of cell migratory potential, as calculated using the following equation: % Wound Closure=[(At=0h−At=22h)/At=0h]×100%, where At=0h is the area of the wound measured immediately after the scratch, and At=22h is the area of the wound after 22 hrs. The figure represents a statistical analysis by three independent experiments using the unpaired Student's t test. The data were evaluated as the mean±1 standard deviation. The image analysis were performed by ImageJ software.

Sequence of Cathepsin D (P07339 65-412, species assumed): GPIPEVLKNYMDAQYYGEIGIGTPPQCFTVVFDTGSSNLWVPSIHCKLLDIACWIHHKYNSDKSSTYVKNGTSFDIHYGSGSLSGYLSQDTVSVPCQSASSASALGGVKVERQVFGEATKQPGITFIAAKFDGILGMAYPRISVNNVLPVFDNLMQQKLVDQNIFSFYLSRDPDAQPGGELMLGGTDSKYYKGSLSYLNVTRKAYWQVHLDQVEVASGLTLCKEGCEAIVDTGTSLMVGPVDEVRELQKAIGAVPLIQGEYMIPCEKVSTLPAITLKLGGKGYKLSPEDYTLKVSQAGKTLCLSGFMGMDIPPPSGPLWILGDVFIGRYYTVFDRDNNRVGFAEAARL
Sequence of Cathepsin S (P25774 115-331, species assumed): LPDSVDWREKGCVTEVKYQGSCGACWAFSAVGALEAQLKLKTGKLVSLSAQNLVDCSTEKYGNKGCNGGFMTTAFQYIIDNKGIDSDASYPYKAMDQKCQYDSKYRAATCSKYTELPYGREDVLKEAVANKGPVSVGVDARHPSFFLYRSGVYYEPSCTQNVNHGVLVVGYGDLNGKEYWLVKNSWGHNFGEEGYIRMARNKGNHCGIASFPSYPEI

With `C=CS(=O)(=O)Oc1ccc(Br)cc1` [Precursor 301], in series [1], the percent inhibition was found to be 95±3%.

Consider `CC(C)C[C@@H](/C=C/S(=O)(=O)Oc1ccc(Br)cc1)NC(=O)[C@H](Cc1ccccc1)NC(=O)OCc1ccccc1` [compound 100], for which the “time to near complete loss of cathepsin L activity” value in series [2] (15 nM compound 100) is given as “less than 100 s”. Further, in series [2] (human cathepsin L), the IC50 stood at 3.6 ± 0.1 nM. Besides, the “RSF (Relative Selectivity Factor)” value is on record as 1 in series [2] (kinact (Cathepsin L)/kinact (Cathepsin L)), 100 on Cathepsin K, 44,000 at Cathepsin B and 13 at Cathepsin S. In series [2] (no significant recovery of activity after very large dilution), the mode of inhibition result is given as “irreversible”. The reactivity result on Cathepsin D, on Cathepsin G, on hPTP1B and with Trypsin was “no reactivity” throughout. The cell permeability result in series [3] is “cell permeable”. For the same compound, the “intracellular substrate turnover (green fluorescence)” value in [3] (750 nM, overnight (22 h), compared to control) is given as “near complete loss of intracellular substrate turnover; also recorded: significant loss of green fluorescent signal intensity”. Moreover, the “cell migratory potential (wound closure)” value in [4] is recorded as “reducing cell migratory potential”.
